According to the supplement of paper PMC12317010:
Where a name gives a salt, the structure may show the parent alone.

Test: collision cross section in nitrogen (drift tube, single-field); higher = larger gas-phase ion size
[1] = ion type: [M+Na], ion source: ESI, ion mode: Positive
[2] = ion type: [M-H], ion source: ESI, ion mode: Negative
[3] = ion type: [M+H], ion source: APCI, ion mode: Positive
[4] = ion type: [M+H], ion source: ESI, ion mode: Positive
[5] = ion type: [M+], ion source: APCI, ion mode: Positive
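Note: chemical standards at 10 µM analysed by drift tube IMS-QTOF MS in about 3.95 torr nitrogen, mean of duplicate injections differing ≤1%, mass error below 10 ppm.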

SMILES	collision cross section in nitrogen [1] [Å²]	collision cross section in nitrogen [2] [Å²]	collision cross section in nitrogen [3] [Å²]	other results
OC[C@H]1O[C@@H]2O[C@H]3[C@H](O)[C@@H](O)[C@@H](O[C@H]4[C@H](O)[C@@H](O)[C@@H](O[C@H]5[C@H](O)[C@@H](O)[C@@H](O[C@H]6[C@H](O)[C@@H](O)[C@@H](O[C@H]7[C@H](O)[C@@H](O)[C@@H](O[C@H]8[C@H](O)[C@@H](O)[C@@H](O[C@H]9[C@H](O)[C@@H](O)[C@@H](O[C@H]1[C@H](O)[C@H]2O)O[C@@H]9CO)O[C@@H]8CO)O[C@@H]7CO)O[C@@H]6CO)O[C@@H]5CO)O[C@@H]4CO)O[C@@H]3CO [gamma-Cyclodextrin]	318.1	314.1		
c1cc(CCCc2ccncc2)ccn1 [4,4'-Propane-1,3-diyldipyridine]			146.1	collision cross section in nitrogen [4]: 145.7 Å²
C=CCC1=C(C)[C@@H](OC(=O)[C@@H]2[C@@H](C=C(C)C)C2(C)C)CC1=O [S-Bioallethrin]	184.5			
COC(=O)Nc1ccc(Cl)c(Cl)c1 [Swep]		140.9		
Cc1ncc(C[n+]2csc(CCO)c2C)c(N)n1 [Thiamine]				collision cross section in nitrogen (ion source: ESI, ion mode: Positive, ion type: [M]+ (permanent cation)): 162.7 Å²
Cc1ccc(N=Nc2c(O)ccc3ccccc23)c(C)c1 [C.I. Solvent Orange 7]			163.6	collision cross section in nitrogen [4]: 166.8 Å²
CC(C)(C)OC(=O)c1ccccc1C(=O)O [tert-Butyl hydrogen phthalate]		151.6		
O=C(O)COCCN1CCN(C(c2ccccc2)c2ccc(Cl)cc2)CC1 (configuration not stated) [Cetirizine hydrochloride (1:2)]	195.6	195	200	collision cross section in nitrogen [4]: 200.3 Å²
CC(c1cc2ccccc2s1)N(O)C(N)=O (configuration not stated) [Zileuton]	156.4			
Oc1ccc(C(c2ccc(O)cc2)(C(F)(F)F)C(F)(F)F)cc1 [Bisphenol AF]		165.6		
CCNc1nc(NC(C)C(C)C)nc(SC)n1 (configuration not stated) [Dimethametryn]		166.9	165.4	collision cross section in nitrogen [4]: 165 Å²
CC(=O)c1c(O)c(C)c(O)c2c1OC1=CC(=O)C(C(C)=O)C(=O)C12C (configuration not stated) [Usnic acid]		177.1		
O=[N+]([O-])c1ccc(Nc2ccc(Nc3ccccc3)c(S(=O)(=O)O)c2)c([N+](=O)[O-])c1 [C.I. Acid Orange 3]		204.4		
CC(Cc1ccc(O)c(O)c1)C(C)Cc1ccc(O)c(O)c1 (configuration not stated) [Nordihydroguaiaretic acid]		167.5		
O=C(O)C1CCC(C(=O)O)CC1 (configuration not stated) [1,4-Cyclohexanedicarboxylic acid]		136.1		
Cc1ccc(S(=O)(=O)NC(=O)NN2CCCCCC2)cc1 [Tolazamide]	183.1	178.1	175.5	collision cross section in nitrogen [4]: 175.4 Å²
CCCCC(CC)COP(=O)(Oc1ccccc1)Oc1ccccc1 (configuration not stated) [2-Ethylhexyl diphenyl phosphate]	200.9			
CCCCC(CC)COC(=O)c1ccc(N(C)C)cc1 (configuration not stated) [4-(Dimethylamino)benzoic acid 2-ethylhexyl ester]			185.9	collision cross section in nitrogen [4]: 185.2 Å²
O=P1(N(CCCl)CCCl)NCCCO1 (configuration not stated) [Cyclophosphamide monohydrate]	154.6		148	collision cross section in nitrogen [4]: 147.6 Å²
COc1ccc(C(=O)c2ccccc2)c(O)c1 [2-Hydroxy-4-methoxybenzophenone]		152.9	147.3	

SMILES	collision cross section in nitrogen [1] [Å²]	collision cross section in nitrogen [2] [Å²]	collision cross section in nitrogen [3] [Å²]	other results
Cc1ccc(Nc2ccc(O)c3c2C(=O)c2ccccc2C3=O)cc1 [D&C Violet 2]			176.9	collision cross section in nitrogen [4]: 176.7 Å²; collision cross section in nitrogen [5]: 174 Å²
O=S1(=O)OC(c2cc(Br)c(O)c(Br)c2)(c2cc(Br)c(O)c(Br)c2)c2ccccc21 [Bromophenol blue]		214.2		
CC(C)(C)c1ccc(CSc2cnn(C(C)(C)C)c(=O)c2Cl)cc1 [Pyridaben]	208.8			
OC[C@@H](O)[C@@H](O)[C@H](O)[C@@H](O)CO [D-Glucitol]	143.4	132.3		
O=S(=O)(O)c1ccc(N=Nc2c(O)ccc3ccccc23)cc1 [C.I. Acid Orange 7]		182.7		
Nc1cc(Cl)c(-c2cc(Cl)c(N)cc2Cl)cc1Cl [2,2',5,5'-Tetrachlorobenzidine]		167.6		collision cross section in nitrogen [5]: 164.9 Å²
COP(=O)(NC(C)=O)SC (configuration not stated) [Acephate]	141	133.9		
CCc1ccc(CCOc2ccc(CC3SC(=O)NC3=O)cc2)nc1 (configuration not stated) [Pioglitazone hydrochloride]	186.7	176.4	178.8	collision cross section in nitrogen [4]: 178.9 Å²
Fc1ccc([C@@]2(Cn3cncn3)O[C@@H]2c2ccccc2Cl)cc1 [Epoxiconazole]	191.3		176.9	collision cross section in nitrogen [4]: 176.6 Å²
Nc1ccc(Oc2ccc(N)cc2)cc1 [4,4'-Oxydianiline]			167.4	collision cross section in nitrogen [4]: 160.7 Å²; collision cross section in nitrogen [5]: 146.6 Å²
CCCCCCCCCCCCCC(=O)O [Tetradecanoic acid]		161.8		
COCC(C)OCC(C)OCC(C)O (configuration not stated) [Tripropylene glycol monomethyl ether]	148.8			
O=[N+]([O-])O [Potassium nitrate]		104.9		
O=c1ccc(=O)[nH][nH]1 [Maleic hydrazide]		117.8		
CCCCCCCCCCCCCOC(=O)c1ccccc1C(=O)OCCCCCCCCCCCCC [Ditridecyl phthalate (mixture of branched chain isomers)]	244.3			
c1ccc(N=Nc2ccccc2)cc1 [Azobenzene]			139.5	
C=CCOCC(CC)(CO)COCC=C [2,2-Bis[(prop-2-en-1-yloxy)methyl]butan-1-ol]	150			
O=c1[nH]c(=O)c2c[nH]nc2[nH]1 [Oxypurinol]		122.3		
Nc1ccc(S(=O)(=O)O)cc1 [4-Aminobenzenesulfonic acid]		134.5		
CCCC(C)c1ccccc1O (configuration not stated) [2-(1-Methylbutyl)phenol]		138.6		
